# Test results reported in US5767291A, “Phenyl heterocycles as cox-2 inhibitors” (Merck Frosst Canada, Inc., priority 1996, dated 1998).
# Where two headings read alike, the source gives them in different places.
# Target: T1, cyclooxygenase-2 (COX-2) (Homo sapiens, UniProt P35354)
# T1 construct: human osteosarcoma 143 cells (which specifically express cyclooxygenase-2); endogenous in cells; host or cells: human osteosarcoma 143 cells (whole cells, and microsomes prepared from them)
# T1 sequence (P35354 18-604): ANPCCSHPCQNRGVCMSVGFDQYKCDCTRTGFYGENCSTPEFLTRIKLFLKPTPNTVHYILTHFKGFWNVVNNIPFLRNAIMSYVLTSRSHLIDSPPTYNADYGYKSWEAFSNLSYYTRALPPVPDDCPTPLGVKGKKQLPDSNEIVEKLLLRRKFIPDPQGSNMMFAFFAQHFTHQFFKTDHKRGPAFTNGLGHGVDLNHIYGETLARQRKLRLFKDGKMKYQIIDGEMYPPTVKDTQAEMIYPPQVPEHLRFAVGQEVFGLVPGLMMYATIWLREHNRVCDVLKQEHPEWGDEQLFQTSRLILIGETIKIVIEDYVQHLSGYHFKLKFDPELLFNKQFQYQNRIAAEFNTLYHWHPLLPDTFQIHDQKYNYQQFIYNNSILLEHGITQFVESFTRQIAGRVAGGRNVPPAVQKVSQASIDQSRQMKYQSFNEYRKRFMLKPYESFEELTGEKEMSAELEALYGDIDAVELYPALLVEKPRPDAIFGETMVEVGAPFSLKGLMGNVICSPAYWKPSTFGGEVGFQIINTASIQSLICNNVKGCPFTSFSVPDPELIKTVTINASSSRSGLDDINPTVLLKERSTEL
# Test: Whole cell cyclooxygenase assay, COX-2 (PGE2 synthesis in response to arachidonic acid, radioimmunoassay), human osteosarcoma 143 cells
# Assay type: cell-based
# Conditions: read-out: Whole Cells COX-2 % inhib.; for inhibition at 0.04 µM: 40 nM; for inhibition at 0.01 µM: 10 nM; for inhibition at 0.08 µM: 80 nM; for inhibition at 0.1 µM: 100 nM
# Experimental: Compounds were tested as inhibitors of cyclooxygenase activity in whole cell and microsomal cyclooxygenase assays. Both of these assays measured prostaglandin E2 (PGE2) synthesis in response to arachidonic acid, using a radioimmunoassay. Cells used for whole cell assays, and from which microsomes were prepared for microsomal assays, were human osteosarcoma 143 cells (which specifically express cyclooxygenase-2) and human U-937 cells (which specifically express cyclooxygenase-1). In these assays, 100% activity is defined as the difference between prostaglandin E2 synthesis in the absence and presence of arachidonate addition.
Structure (SMILES),inhibition at 0.04 µM,inhibition at 0.16 µM (160 nM),inhibition at 0.01 µM,also measured
"CS(=O)(=O)c1ccc(C2=C(c3ccccc3Cl)C(=O)OC2)cc1 [Example 24, 3-(2-Chlorophenyl)-4-(4-(methylsulfonyl)phenyl)-2-(5H)-furanone]",43%,78%,,
"COc1ccc(C2=C(c3ccc(S(C)(=O)=O)cc3)COC2=O)cc1 [Example 22, 3-(4-Methoxyphenyl)-4-(4-(methylsulfonyl)phenyl)-2-(5H)-furanone]",,98%,,inhibition at 0.02 µM (20 nM): 39%
"CS(=O)(=O)c1ccc(C2=C(c3c(Cl)cccc3Cl)C(=O)OC2)cc1 [Example 33, 3-(2,6-Dichlorophenyl)-4-(4-(methylsulfonyl)phenyl)-2-(5H)-furanone]",,6%,,
"CS(=O)(=O)c1ccc(C2=C(c3ccc(Cl)cc3Br)C(=O)OC2)cc1 [Example 26, 3-(2-Bromo-4-Chlorophenyl)-4-(4-(methylsulfonyl)phenyl)-2-(5H)-furanone]",,39%,,inhibition at 0.08 µM: 27%
"CS(=O)(=O)c1ccc(C2=C(c3ccc(F)c(F)c3)C(=O)OC2)cc1 [Example 16, 3-(3,4-Difluorophenyl)-4-(4-(methylsulfonyl)phenyl)-2-(5H)-furanone]",50%,85%,,inhibition at 0.02 µM (20 nM): 41%
"CS(=O)(=O)c1ccc(C2=C(c3ccccc3)C(=O)OC2)cc1 [Example 23, 3-(Phenyl)-4-(4-(methylsulfonyl)phenyl)-2-(5H)-furanone]",,,,inhibition at 0.02 µM: 50%; inhibition at 0.16 µM: 88%
"CS(=O)(=O)c1ccc(C2=C(c3cc(F)cc(F)c3)C(=O)OC2)cc1 [Example 19, 3-(3,5-Difluorophenyl)-4-(4-(methylsulfonyl)phenyl)-2-(5H)-furanone]",21%,59%,,
"CS(=O)(=O)c1ccc(C2=C(c3cc(F)ccc3F)C(=O)OC2)cc1 [Example 18, 3-(2,5-Difluorophenyl)-4-(4-(methylsulfonyl)phenyl)-2-(5H)-furanone]",24%,58%,,
"CS(=O)(=O)c1ccc(-c2cnsc2-c2ccc(F)cc2)cc1 [Example 8, 4-(4-(Methylsulfonyl)phenyl)-5-(4-fluorophenyl)-isothiazole]",,,41%,inhibition at 0.1 µM: 89%
"CC1(C)OC(=O)C(c2ccc(F)cc2)=C1c1ccc(S(C)(=O)=O)cc1 [Example 12, 5,5-Dimethyl-3-(4-fluorophenyl)-4-(4-methylsulfonylphenyl)-2-(5H)-furanone]",,,,inhibition at 0.1 µM: 54%
"CS(=O)(=O)c1ccc(C2=C(c3ccc(F)c(Br)c3)C(=O)OC2)cc1 [Example 28, 3-(3-Bromo-4-fluorophenyl)-4-(4-(methylsulfonyl)phenyl)-2-(5H)-furanone]",,69%,,inhibition at 0.02 µM (20 nM): 48%
"CS(=O)(=O)c1ccc(C2=C(c3ccc(F)cc3F)C(=O)OC2)cc1 [Example 15, 3-(2,4-Difluorophenyl)-4-(4-(methylsulfonyl)phenyl)-2-(5H)-furanone]",,95%,,inhibition at 0.02 µM (20 nM): 39%; inhibition at 0.08 µM: 76%
"CS(=O)(=O)c1ccc(C2=C(c3ccc(F)cc3Cl)C(=O)OC2)cc1 [Example 30, 3-(2-Chloro-4-fluorophenyl)-4-(4-(methylsulfonyl)phenyl)-2-(5H)-furanone]",,30%,,
"CS(=O)(=O)c1ccc(C2=C(c3cccc(Cl)c3)C(=O)OC2)cc1 [Example 29, 3-(3-Chlorophenyl)-4-(4-(methylsulfonyl)phenyl)-2-(5H)-furanone]",,85%,,inhibition at 0.02 µM (20 nM): 78%
"CS(=O)(=O)c1ccc(C2=C(c3ccc(Cl)cc3)C(=O)OC2)cc1 [Example 21, 3-(4-Chlorophenyl)-4-(4-(methylsulfonyl)phenyl)-2-(5H)-furanone]",94%,,50%,
"CS(=O)(=O)c1ccc(C2=C(c3ccc(Cl)c(Cl)c3)C(=O)OC2)cc1 [Example 32, 3-(3,4-Dichlorophenyl)-4-(4-(methylsulfonyl)phenyl)-2-(5H)-furanone]",92%,,73%,inhibition at 0.005 µM (5 nM): 43%; inhibition at 0.08 µM: 99%

# The next lines start with results.
inhibition at 0.04 µM,inhibition at 0.16 µM (160 nM),inhibition at 0.01 µM,Structure (SMILES),also measured
61%,101%,16%,"CS(=O)(=O)c1ccc(C2=C(c3ccc(Br)c(Br)c3)C(=O)OC2)cc1 [Example 45, 3-(3,4-Dibromophenyl)-4-(4-(methylsulfonyl)phenyl)-2-(5H)-furanone]",
82%,102%,50%,"NS(=O)(=O)c1ccc(C2=C(c3ccc(F)c(F)c3)C(=O)OC2)cc1 [Example 52, 3-(3,4-Difluorophenyl)-4-(4-(aminosulfonyl)phenyl)-2-(2H)-furanone]",
63%,88%,25%,"COc1ccc(C2=C(c3ccc(S(C)(=O)=O)cc3)COC2=O)cc1Br [Example 38, 3-(3-Bromo-4-methoxyphenyl)-4-(4-(methylsulfonyl)phenyl)-2-(5H)-furanone]",
82%,93%,53%,"COc1ccc(C2=C(c3ccc(S(C)(=O)=O)cc3)COC2=O)cc1Cl [Example 37, 3-(3-Chloro-4-methoxyphenyl)-4-(4-(methylsulfonyl)phenyl)-2-(5H)-furanone]",
,99%,81%,"COc1ccc(C2=C(c3ccc(S(N)(=O)=O)cc3)COC2=O)cc1Br [Example 54, 3-(3-Bromo-4-methoxyphenyl)-4-(4-(aminosulfonyl)phenyl)-2-(2H)-furanone]",inhibition at 0.08 µM: 91%
91%,,53%,"CS(=O)(=O)c1ccc(C2=C(c3ccc4ccccc4c3)C(=O)OC2)cc1 [Example 49, 3-(2-Naphthyl)-4-(4-(methylsulfonyl)phenyl)-2-(5H)-furanone]",inhibition at 0.08 µM: 99%
72%,96%,43%,"CSc1ccc(C2=C(c3ccc(S(C)(=O)=O)cc3)COC2=O)cc1 [Example 40, 3-(4-Methylthiophenyl)-4-(4-(methylsulfonyl)phenyl)-2-(5H)-furanone]",
101%,,78%,"Cc1ccc(C2=C(c3ccc(S(C)(=O)=O)cc3)COC2=O)cc1Br [Example 43, 3-(3-Bromo-4-methylphenyl)-4-(4-(methylsulfonyl)phenyl)-2-(5H)-furanone]",
96%,102%,54%,"COc1ccc(C2=C(c3ccc(S(N)(=O)=O)cc3)COC2=O)cc1Cl [Example 53, 3-(3-Chloro-4-methoxyphenyl)-4-(4-(aminosulfonyl)phenyl)-2-(2H)-furanone]",
,47%,7%,"CS(=O)(=O)c1ccc(C2=C(c3ccc(Br)cc3Cl)C(=O)OC2)cc1 [Example 48, 3-(4-Bromo-2-chlorophenyl)-4-(4-(methylsulfonyl)phenyl)-2-(5H)-furanone]",
,84%,17%,"CS(=O)(=O)c1ccc(C2=C(c3ccccc3F)C(=O)OC2)cc1 [Example 39, 3-(2-Fluorophenyl)-4-(4-(methylsulfonyl)phenyl)-2-(5H)-furanone]",
80%,102%,30%,"CS(=O)(=O)c1ccc(C2=C(c3ccc(F)c(Cl)c3)C(=O)OC2)cc1 [Example 34, 3-(3-Chloro-4-fluorophenyl)-4-(4-(methylsulfonyl)phenyl)-2-(5H)-furanone]",
55%,106%,,"CS(=O)(=O)c1ccc(C2=C(c3ccc(Br)cc3F)C(=O)OC2)cc1 [Example 44, 3-(4-Bromo-2-fluorophenyl)-4-(4-(methylsulfonyl)phenyl)-2-(5H)-furanone]",inhibition at 0.02 µM (20 nM): 14%
,44%,,"CS(=O)(=O)c1ccc(C2=C(c3c(F)cccc3Cl)C(=O)OC2)cc1 [Example 42, 3-(2-Chloro-6-fluorophenyl)-4-(4-(methylsulfonyl)phenyl)-2-(5H)-furanone]",inhibition at 0.02 µM (20 nM): 10%
74%,101%,61%,"CS(=O)(=O)c1ccc(C2=C(c3ccc(Br)c(F)c3)C(=O)OC2)cc1 [Example 47, 3-(4-Bromo-3-fluorophenyl)-4-(4-(methylsulfonyl)phenyl)-2-(5H)-furanone]",
50%,89%,11%,"COc1ccc(C2=C(c3ccc(S(C)(=O)=O)cc3)COC2=O)cc1F [Example 36, 3-(3-Fluoro-4-methoxyphenyl)-4-(4-(methylsulfonyl)phenyl)-2-(5H)-furanone]",
